Data reported in patent US5395757A, “Method for the hydrolysis of sugar compounds and reagent therefor” (Takara Shuzo Co., Ltd., priority 1991, dated 1995).

Tests used:
[1] = system: lacto-N-biosidase; experiment: Substrate specificity of lacto-N-biosidase (hydrolysis of oligosaccharides, HPLC); assay type: biochemical, Streptomyces sp 142; conditions: for hydrolysis by lacto-N-biosidase: oligosaccharides labelled with 2-aminopyridine
Experimental: Lacto-N-biosidase was assayed by being incubated for 20 min with the compound described by formula II below at the concentration of 2 μM at 37° C. in 10 μl of 100 mM potassium phosphate buffer, pH 6.0.
wherein PA represents a pyridylamino residue. […] Then 40 μl of 1% trifluoroacetic acid was added to the reaction mixture to stop the reaction. A portion containing 10 pmol of PA-oligosaccharides was then analyzed by HPLC with an amino-silica column (Palpak Type N column, 4.6×250 mm, Takara Shuzo), and detected by fluorescence with the excitation and emission wavelengths of 310 and 380 nm, respectively. Elution was at the flow rate of 1.0 ml/min at 40° C. with a 70:30 (v/v) mixture of acetonitrile and 0.2M triethylamine acetate buffer, pH 7.3. The degree of hydrolysis was calculated from the peak areas of the substrate and the product, PA-lactose, in comparison with the peak area of the corresponding standard PA-oligosaccharide. One unit of activity was defined as the amount of enzyme needed to release 1 μmol of PA-lactose per minute under the conditions described above.

[2] = system: lacto-N-biosidase and α-1,3/4 fucosidase; experiment: Digestion with a mixture of lacto-N-biosidase and α-1,3/4 fucosidase; assay type: biochemical; conditions: lacto-N-biosidase plus α-1,3/4 fucosidase
From the text: The method and the reagent of this invention can be used in studies done to identify type 1 structures in glycoconjugates, to distinguish type 1 oligosaccharides from type 2 oligosaccharides, and to elucidate the functions of lacto-N-biosyl residues in glycoconjugates. In particular, with its use, the Le^a structure can be easily distinguished from the Le^x structure by use of lacto-N-biosidase and α-1,3/4 fucosidase (Ogata-Arakawa et al., Arch. Biochem. Biophys. 181, 353, 1977; Scudder et al., J. Biol. Chem. 265, 16472, 1990; Sano et al., J. Biol. Chem. 267, 1522, 1992).

[3] = system: lacto-N-biosidase; experiment: Structural analysis of reaction products of lacto-N-biosidase (Example 3); assay type: biochemical, Streptomyces sp 142; conditions: about 100 nmol substrate, 0.6 mU enzyme, 60 h at 37° C., pH 6.0
Experimental: To elucidate the reaction products of lacto-N-biosidase obtained by the method of example 1, the structures of the enzyme reaction products were analyzed in detail with the PA-oligosaccharide shown as formula VI below as the substrate. PA-oligosaccharide described by formula VI (about 100 nmol; Takara Shuzo Co.) mixed with lacto-N-biosidase (total, 0.6 mU) prepared as described in example 1 was digested for 60 h at 37° C. in a final volume of 360 μl containing 0.1M potassium phosphate buffer, pH 6.0. The reaction mixture was pyridylaminated by the method described in U.S. Pat. No. 4,975,533 and analyzed by HPLC with an amino-silica column. There were two peaks of PA-oligosaccharides: fractions 1 and 2. The elution position of fraction 1 was the same as that of the PA-oligosaccharide described by formula VII, and the elution position of fraction 2 was the same as that of PA-oligosaccharide described by formula VIII below. The amounts of these two products, calculated from the peak areas of fractions 1 and 2 , were identical to that of the PA-oligosaccharide substrate of formula VI.

Molecule	hydrolysis by lacto-N-biosidase [1]	further results
CC(=O)N[C@H]1[C@H](O[C@H]2[C@@H](O)[C@@H](CO)O[C@@H](O[C@@H]([C@H](O)[C@@H](O)CNc3ccccn3)[C@H](O)CO)[C@@H]2O)O[C@H](CO)[C@@H](O)[C@@H]1O[C@@H]1O[C@H](CO)[C@H](O)[C@H](O)[C@H]1O[C@@H]1O[C@@H](C)[C@@H](O)[C@@H](O)[C@@H]1O	did not hydrolyze	–
CC(=O)N[C@H]1[C@H](O[C@H]2[C@@H](O)[C@@H](CO)O[C@@H](O[C@@H]([C@H](O)[C@@H](O)CNc3ccccn3)[C@H](O)CO)[C@@H]2O)O[C@H](CO)[C@@H](O[C@@H]2O[C@H](CO)[C@H](O)[C@H](O)[C@H]2O)[C@@H]1O	did not hydrolyze	–
CC(=O)N[C@H]1[C@H](O[C@H]2[C@@H](O)[C@@H](CO)O[C@@H](O[C@@H]([C@H](O)[C@@H](O)CNc3ccccn3)[C@H](O)CO)[C@@H]2O)O[C@H](CO)[C@@H](O)[C@@H]1O[C@@H]1O[C@H](CO)[C@H](O)[C@H](O)[C@H]1O	specifically hydrolyzed	–
CC(=O)N[C@H]1[C@H](O[C@H]2[C@@H](O)[C@@H](CO)O[C@@H](O[C@@H]([C@H](O)[C@@H](O)CNc3ccccn3)[C@H](O)CO)[C@@H]2O)O[C@H](CO)[C@@H](O[C@@H]2O[C@H](CO)[C@H](O)[C@H](O)[C@H]2O)[C@@H]1O[C@@H]1O[C@@H](C)[C@@H](O)[C@@H](O)[C@@H]1O [PA-lacto-N-fucopentaose III]	–	product obtained on treatment with the mixture of the two enzymes [2]: PA-lacto-N-neotetraose was obtained
CC(=O)N[C@H]1[C@H](O[C@H]2[C@@H](O)[C@@H](CO)O[C@@H](O[C@@H]([C@H](O)[C@@H](O)CNc3ccccn3)[C@H](O)CO)[C@@H]2O)O[C@H](CO)[C@@H](O[C@@H]2O[C@@H](C)[C@@H](O)[C@@H](O)[C@@H]2O)[C@@H]1O[C@@H]1O[C@H](CO)[C@H](O)[C@H](O)[C@H]1O [PA-lacto-N-fucopentaose II]	–	product obtained on treatment with the mixture of the two enzymes [2]: PA-lactose was obtained
CC(=O)N[C@H]1[C@H](O[C@@H]2[C@H](O)[C@@H](O)[C@H](O[C@@H]([C@H](O)[C@@H](O)CNc3ccccn3)[C@H](O)CO)O[C@@H]2CO)O[C@H](CO)[C@H](O)[C@@H]1O[C@@H]1O[C@H](CO)[C@H](O)[C@H](O)[C@H]1O [asialo GM1 tetrasaccharide]	did not hydrolyze	–
CC(=O)N[C@H]1[C@H](O[C@@H]([C@H](O)[C@H](CNc2ccccn2)NC(C)=O)[C@H](O)CO)O[C@H](CO)[C@@H](O[C@@H]2O[C@H](CO[C@H]3O[C@H](CO)[C@@H](O)[C@H](O)[C@@H]3O[C@@H]3O[C@H](CO)[C@@H](O[C@@H]4O[C@H](CO)[C@H](O)[C@H](O)[C@H]4O)[C@H](O)[C@H]3NC(C)=O)[C@@H](O)[C@H](O[C@H]3O[C@H](CO)[C@@H](O[C@@H]4O[C@H](CO)[C@@H](O)[C@H](O[C@@H]5O[C@H](CO)[C@H](O)[C@H](O)[C@H]5O)[C@H]4NC(C)=O)[C@H](O)[C@@H]3O[C@@H]3O[C@H](CO)[C@@H](O[C@@H]4O[C@H](CO)[C@H](O)[C@H](O)[C@H]4O)[C@H](O)[C@H]3NC(C)=O)[C@@H]2O)[C@@H]1O [formula III]	–	products of hydrolysis by lacto-N-biosidase [1]: lacto-N-biose and the N-acetyllactosamine type of biantennary sugar chain
CC(=O)N[C@H]1[C@H](Oc2ccc([N+](=O)[O-])cc2)O[C@H](CO)[C@@H](O)[C@@H]1O[C@@H]1O[C@H](CO)[C@H](O)[C@H](O)[C@H]1O [formula V, Galβ1--3GlcNAcβ1--p--nitrophenol]	–	products of hydrolysis by lacto-N-biosidase [1]: lacto-N-biose and p-nitrophenol
CC(=O)N[C@H]1[C@H](O[C@@H]([C@H](O)[C@H](CNc2ccccn2)NC(C)=O)[C@H](O)CO)O[C@H](CO)[C@@H](O[C@@H]2O[C@H](CO[C@H]3O[C@H](CO)[C@@H](O)[C@H](O)[C@@H]3O[C@@H]3O[C@H](CO)[C@@H](O[C@@H]4O[C@H](CO)[C@H](O)[C@H](O)[C@H]4O)[C@H](O)[C@H]3NC(C)=O)[C@@H](O)[C@H](O[C@H]3O[C@H](CO)[C@@H](O[C@@H]4O[C@H](CO)[C@@H](O)[C@H](O[C@@H]5O[C@H](CO)[C@H](O)[C@H](O)[C@H]5O)[C@H]4NC(C)=O)[C@H](O)[C@@H]3O[C@@H]3O[C@H](CO)[C@@H](O[C@@H]4O[C@H](CO)[C@H](O)[C@H](O)[C@H]4O)[C@H](O)[C@H]3NC(C)=O)[C@@H]2O)[C@@H]1O [formula VI]	–	linkage cleaved by the enzyme reaction [3]: only lacto-N-biosidic linkage in the substrate was cleaved
CC(=O)N[C@H]1[C@H](O[C@H]2[C@@H](O)[C@@H](CO)O[C@@H](O[C@H]3[C@H](O)[C@@H](O)C(O)O[C@@H]3CO)[C@@H]2O)O[C@H](CO)[C@@H](O)[C@@H]1O (stereo partly drawn) [lacto-N-triose]	did not hydrolyze	–
poly-N-acetyllactosamine	did not hydrolyze	–
sialyl lacto-N-tetraose	did not hydrolyze	–
